# Measurements published in patent publication US20250127905A1, “GLUTARIMIDE COMPOUND AND USE THEREOF” (MEDSHINE DISCOVERY INC., priority 2021, published 2025).
# Where a name gives a salt, the structure may show the parent alone.
# Key:
# [1] = tested on: sodium urate-induced acute gouty arthritis; test: Sodium urate-induced acute gouty arthritis in rats; format: in vivo, SD rats
# Experimental: It is to evaluate the preventive and therapeutic effect of compounds on sodium urate-induced acute gouty arthritis in rats. Animals: 5-week-old male SD rats; source: Zhejiang Vital River Laboratory Animal Technology Co., Ltd. Experimental grouping: After 3 days of acclimatization, all animals were measured for basal hindfoot volume, arthritis index score, and bilateral hindfoot pain threshold. 50 animals were selected and divided equally into 5 groups with 10 animals each based on body weight, hindfoot volume, arthritis index, and bilateral hindfoot pain threshold. The day of initiation of administration was recorded as D-1, and intragastric administration was performed twice a day for 6 consecutive days (D-1 to […]). 1 hour after the first administration at D0 (1 day after administration), except for the blank control group, the other rats were anesthetized with isoflurane, and 50 μL (50 mg/mL) of sodium urate solution was injected into the joint cavity for modeling at the lateral posterior side of the right ankle joint, which was used as a puncture point. Joint swelling would peak after 8 to 12 hours (lasting about 72 hours). Foot volumes of the animals were measured and arthritis index (AI) scoring was performed before and 2, 5, 8, 11, 24, 48, 72, and 96 hours after the onset of inflammation; pain thresholds were measured using a bipedal balance pain tester before and 2, 24, 48, 72, and 96 hours after the onset of inflammation. Photographs of critical swelling were taken at the peak of joint swelling (8 to 12 hours) in each group of animals and retained. Foot volume measurement: Before measurement, a line was drawn at the ankle joint of a rat with a marker to mark the position, and the instrument was added with clean water and zeroed to be ready for measurement. The hind limbs of the rat were placed in the water so that the marked line at the ankle joint was on the surface of the liquid, at which time the foot pedal was pressed to read the foot volume of the rat. At the end of the measurement, the foot pedal was pressed again for zeroing to be ready for the measurement of the next rat. Arthritis index (AI): The foot volume was measured while the swelling of the modeled foot was scored. Arthritis index scoring criteria: [table] Experimental data were expressed as Mean±SD; data were statistically analyzed using IBM SPSS Statistics 21, and p<0.05 was considered a significant difference between the two groups.
# [2] = Pharmacokinetic evaluation in cynomolgus monkeys; format: in vivo
# Excerpt: In this study, male cynomolgus monkeys were selected as test animals, and LC/MS/MS method was used to quantify plasma concentrations of the test compound intravenously injected or intragastrically administered to cynomolgus monkeys at different time points, so as to evaluate the pharmacokinetic profile of the test drug in cynomolgus monkeys.
# Cynomolgus monkeys (male, 2 to 5 kg, Hainan Jingang Biotech Co., Ltd.).
# A clarified solution of the test compound was slowly injected into cynomolgus monkeys (feeding) via the peripheral vein (vehicle: 5% DMSO/10% Solutol/85% H2O), or intragastrically administered into cynomolgus monkeys (feeding). For intravenous injection, 0.5 mL of blood was collected from the peripheral vein at 0 h (pre-administration) and 0.083 h, 0.25 h, 0.5 h, 1 h, 2 h, 4 h, 6 h, 8 h, and 24 h after administration, placed in an anticoagulant tube added with EDTA-2K, and centrifuged at 3200 g for 10 minutes at 2 to 8° C. to separate the supernatant. For oral administration, 0.5 mL of blood was collected from the peripheral vein at 0 h (pre-administration) and 0.083 h, 0.25 h, 0.5 h, 1 h, 2 h, 4 h, 6 h, 8 h, and 24 h after administration, placed in an anticoagulant tube added with EDTA-2K, and centrifuged at 3200 g for 10 minutes at 2 to 8° C. to separate the supernatant. Plasma concentrations were determined by LC-MS/MS method, and relevant pharmacokinetic parameters were calculated using Phoenix WinNonlin 6.3 pharmacokinetic software with non-compartmental model linear-log trapezoidal method.
# [3] = 30 mg/kg intragastric twice a day, time 0 h
# [4] = 30 mg/kg intragastric twice a day, time 2 h
# [5] = 30 mg/kg intragastric twice a day, time 5 h
# [6] = 30 mg/kg intragastric twice a day, time 8 h
# [7] = 30 mg/kg intragastric twice a day, time 11 h
# [8] = 30 mg/kg intragastric twice a day, time 24 h
# [9] = 30 mg/kg intragastric twice a day, time 48 h
# [10] = 30 mg/kg intragastric twice a day, time 72 h
# [11] = 30 mg/kg intragastric twice a day, time 96 h
# [12] = 100 mg/kg intragastric twice a day, time 0 h
# [13] = 100 mg/kg intragastric twice a day, time 2 h
# [14] = 100 mg/kg intragastric twice a day, time 5 h
# [15] = 100 mg/kg intragastric twice a day, time 8 h
# [16] = 100 mg/kg intragastric twice a day, time 11 h
# [17] = 100 mg/kg intragastric twice a day, time 24 h
# [18] = 100 mg/kg intragastric twice a day, time 48 h
# [19] = 100 mg/kg intragastric twice a day, time 72 h
# [20] = 100 mg/kg intragastric twice a day, time 96 h
# [21] = 200 mg/kg intragastric twice a day, time 0 h
# [22] = 200 mg/kg intragastric twice a day, time 2 h
# [23] = 200 mg/kg intragastric twice a day, time 5 h
# [24] = 200 mg/kg intragastric twice a day, time 8 h
# [25] = 200 mg/kg intragastric twice a day, time 11 h
# [26] = 200 mg/kg intragastric twice a day, time 24 h
# [27] = 200 mg/kg intragastric twice a day, time 48 h
# [28] = 200 mg/kg intragastric twice a day, time 72 h
# [29] = 200 mg/kg intragastric twice a day, time 96 h
# [30] = Intragastric administration (5 mg/kg)
structure (smiles),measurement,setting,value
O=C1CCC(c2noc3c(NC(=O)CN4CCN(C[C@H]5CC[C@H](n6cc(NC(=O)c7cnn8ccc(N9C[C@H]%10C[C@@H]9CO%10)nc78)c(C(F)F)n6)CC5)CC4)cccc23)C(=O)N1 (some centres unmarked) [Hydrochloride of WX015],Arthritis index,[1]; [3],0
same,Foot volume,[1]; [3],3.63 mL
same,Hindfoot weight-bearing difference,[1]; [3],0.69 g
same,Arthritis index,[1]; [4],1
same,Foot volume,[1]; [4],3.88 mL
same,Hindfoot weight-bearing difference,[1]; [4],19.09 g
same,Arthritis index,[1]; [5],1
same,Foot volume,[1]; [5],3.9 mL
same,Arthritis index,[1]; [6],1
same,Foot volume,[1]; [6],3.9 mL
same,Arthritis index,[1]; [7],1
same,Foot volume,[1]; [7],3.92 mL
same,Arthritis index,[1]; [8],0.9
same,Foot volume,[1]; [8],3.9 mL
same,Hindfoot weight-bearing difference,[1]; [8],13.22 g
same,Arthritis index,[1]; [9],0.5
same,Foot volume,[1]; [9],3.91 mL
same,Hindfoot weight-bearing difference,[1]; [9],6.6 g
same,Arthritis index,[1]; [10],0.3
same,Foot volume,[1]; [10],3.94 mL
same,Hindfoot weight-bearing difference,[1]; [10],4.3 g
same,Arthritis index,[1]; [11],0.1
same,Foot volume,[1]; [11],3.96 mL
same,Hindfoot weight-bearing difference,[1]; [11],2.1 g
same,Arthritis index,[1]; [12],0
same,Foot volume,[1]; [12],3.63 mL
same,Hindfoot weight-bearing difference,[1]; [12],0.12 g
same,Arthritis index,[1]; [13],1
same,Foot volume,[1]; [13],3.85 mL
same,Hindfoot weight-bearing difference,[1]; [13],16.38 g
same,Arthritis index,[1]; [14],1
same,Foot volume,[1]; [14],3.88 mL
same,Arthritis index,[1]; [15],1
same,Foot volume,[1]; [15],3.9 mL
same,Arthritis index,[1]; [16],1
same,Foot volume,[1]; [16],3.91 mL
same,Arthritis index,[1]; [17],0.6
same,Foot volume,[1]; [17],3.88 mL
same,Hindfoot weight-bearing difference,[1]; [17],12.2 g
same,Arthritis index,[1]; [18],0.3
same,Foot volume,[1]; [18],3.9 mL
same,Hindfoot weight-bearing difference,[1]; [18],5.72 g
same,Arthritis index,[1]; [19],0.2
same,Foot volume,[1]; [19],3.93 mL
same,Hindfoot weight-bearing difference,[1]; [19],3 g
same,Arthritis index,[1]; [20],0
same,Foot volume,[1]; [20],3.95 mL
same,Hindfoot weight-bearing difference,[1]; [20],2.01 g
same,Arthritis index,[1]; [21],0
same,Foot volume,[1]; [21],3.62 mL
same,Hindfoot weight-bearing difference,[1]; [21],-0.23 g
same,Arthritis index,[1]; [22],1
same,Foot volume,[1]; [22],3.84 mL
same,Hindfoot weight-bearing difference,[1]; [22],14.81 g
same,Arthritis index,[1]; [23],1
same,Foot volume,[1]; [23],3.88 mL
same,Arthritis index,[1]; [24],1
same,Foot volume,[1]; [24],3.89 mL
same,Arthritis index,[1]; [25],1
same,Foot volume,[1]; [25],3.88 mL
same,Arthritis index,[1]; [26],0.5
same,Foot volume,[1]; [26],3.87 mL
same,Hindfoot weight-bearing difference,[1]; [26],11.32 g
same,Arthritis index,[1]; [27],0.2
same,Foot volume,[1]; [27],3.89 mL
same,Hindfoot weight-bearing difference,[1]; [27],3.91 g
same,Arthritis index,[1]; [28],0
same,Foot volume,[1]; [28],3.91 mL
same,Hindfoot weight-bearing difference,[1]; [28],2.1 g
same,Arthritis index,[1]; [29],0
same,Foot volume,[1]; [29],3.93 mL
same,Hindfoot weight-bearing difference,[1]; [29],1.94 g
same,Area under the drug-time curve (0-inf),[2]; [30],1140 nM·h
same,Peak concentration,[2]; [30],0.14 µM
same,Time to peak concentration,[2]; [30],4.0 h
same,Area under the drug-time curve (0-inf),[2]; Intravenous injection (0.5 mg/kg),210 nM·h
same,clearance,"[2]; male, cynomolgus monkey, plasma, Intravenous injection (0.5 mg/kg)",2.91 L/h/kg
same,Vd,"[2]; male, cynomolgus monkey, plasma, Intravenous injection (0.5 mg/kg), read-out: Apparent volume of distribution",8.83 L/kg
same,half-life,"[2]; male, cynomolgus monkey, plasma, Intravenous injection (0.5 mg/kg), read-out: Elimination half-life (converted)",2.33 h
same,bioavailability,"[2]; male, cynomolgus monkey, plasma, oral, IV 0.5 mg/kg, intragastric 5 mg/kg, read-out: Bioavailability F",55.5%
